Test results taken from patent publication US12421210B2, “Fused bicyclic heterocycles as therapeutic agents” (NEW YORK UNIVERSITY, priority 2018, dated 2025).

The compounds below were run against human NAMPT enzyme (His-hNAMPT) (Homo sapiens (Human), UniProt P43490) (assay: NAMPT enzymatic inhibition assay (fluorescence, NADH product)). Settings: [BPS]; read-out: NAMPT IC50 (μM) [BPS].
Type: biochemical

Sequence of human NAMPT enzyme (His-hNAMPT) (P43490 whole entry): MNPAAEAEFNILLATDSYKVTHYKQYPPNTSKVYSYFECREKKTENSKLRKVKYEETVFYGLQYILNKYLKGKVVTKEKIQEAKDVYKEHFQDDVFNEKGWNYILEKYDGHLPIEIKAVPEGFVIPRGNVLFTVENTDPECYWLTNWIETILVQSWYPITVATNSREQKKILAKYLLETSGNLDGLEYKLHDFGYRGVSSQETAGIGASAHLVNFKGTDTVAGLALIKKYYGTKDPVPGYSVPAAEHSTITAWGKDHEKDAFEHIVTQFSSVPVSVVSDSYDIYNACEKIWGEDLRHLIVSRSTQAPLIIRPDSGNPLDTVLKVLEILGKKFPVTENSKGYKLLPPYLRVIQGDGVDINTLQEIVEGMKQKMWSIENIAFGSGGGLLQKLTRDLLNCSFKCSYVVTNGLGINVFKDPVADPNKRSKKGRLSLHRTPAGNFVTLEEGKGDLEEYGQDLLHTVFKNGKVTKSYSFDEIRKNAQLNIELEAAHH

IC50 | SMILES
0.01 to 0.49 µM | Nc1ccc(/C=C/C(=O)NCC[C@@H]2[C@H]3CN(C(=O)c4ccc(OC(F)F)cc4)C[C@@H]23)cn1 [Example 90, (E)-3-(6-aminopyridin-3-yl)-N-(2-((1R,5S,6s)-3-(4-(difluoromethoxy)benzoyl)-3-azabicyclo[3.1.0]hexan-6-yl)ethyl)acrylamide]
0.01 to 0.49 µM | Nc1ccc(/C=C/C(=O)NCC[C@@H]2[C@H]3CN(C(=O)c4cccc(OC(F)F)c4)C[C@@H]23)cn1 [Example 91, (E)-3-(6-aminopyridin-3-yl)-N-(2-((1R,5S,6s)-3-(3-(difluoromethoxy)benzoyl)-3-azabicyclo[3.1.0]hexan-6-yl)ethyl)acrylamide]
0.01 to 0.49 µM | Cc1ccncc1C(=O)N1C[C@@H]2[C@@H](CCNC(=O)/C=C/c3ccc(N)nc3)[C@@H]2C1 [Example 92, (E)-3-(6-aminopyridin-3-yl)-N-(2-((1R,5S,6s)-3-(4-methylnicotinoyl)-3-azabicyclo[3.1.0]hexan-6-yl)ethyl)acrylamide]
0.01 to 0.49 µM | CN1CCC(c2ccc(C(=O)N3C[C@@H]4[C@@H](CCNC(=O)/C=C/c5ccc(N)nc5)[C@@H]4C3)cc2)CC1 [Example 93, (E)-3-(6-aminopyridin-3-yl)-N-(2-((1R,5S,6s)-3-(4-(1-methylpiperidin-4-yl)benzoyl)-3-azabicyclo[3.1.0]hexan-6-yl)ethyl)acrylamide]
0.01 to 0.49 µM | Nc1ccc(/C=C/C(=O)NCC[C@@H]2[C@H]3CN(C(=O)CC4CCOCC4)C[C@@H]23)cn1 [Example 94, (E)-3-(6-aminopyridin-3-yl)-N-(2-((1R,5S,6s)-3-(2-(tetrahydro-2H-pyran-4-yl)acetyl)-3-azabicyclo[3.1.0]hexan-6-yl)ethyl)acrylamide]
0.01 to 0.49 µM | Nc1ccc(/C=C/C(=O)NCC[C@@H]2[C@H]3CN(C(=O)C4CCOCC4)C[C@@H]23)cn1 [Example 95, (E)-3-(6-aminopyridin-3-yl)-N-(2-((1R,5S,6s)-3-(tetrahydro-2H-pyran-4-carbonyl)-3-azabicyclo[3.1.0]hexan-6-yl)ethyl)acrylamide]
0.01 to 0.49 µM | CC(C)(C)CNC(=O)N1C[C@@H]2[C@@H](CCNC(=O)/C=C/c3ccc(N)nc3)[C@@H]2C1 [Example 96, (1R,5S,6s)-6-(2-((E)-3-(6-aminopyridin-3-yl)acrylamido)ethyl)-N-neopentyl-3-azabicyclo[3.1.0]hexane-3-carboxamide]
0.01 to 0.49 µM | O=C(NCC[C@@H]1[C@H]2CN(C(=O)c3ccc(F)cc3)C[C@@H]12)c1cc2ccncc2o1 [Example 97, N-(2-((1R,5S,6s)-3-(4-fluorobenzoyl)-3-azabicyclo[3.1.0]hexan-6-yl)ethyl)furo[2,3-c]pyridine-2-carboxamide]
0.01 to 0.49 µM | Cc1nc(C)c(C(=O)N2C[C@@H]3[C@@H](CCNC(=O)c4cc5ccncc5o4)[C@@H]3C2)o1 [Example 98, N-(2-((1R,5S,6s)-3-(2,4-dimethyloxazole-5-carbonyl)-3-azabicyclo[3.1.0]hexan-6-yl)ethyl)furo[2,3-c]pyridine-2-carboxamide]
0.01 to 0.49 µM | O=C(NCC[C@@H]1[C@H]2CN(C(=O)CC3CCOCC3)C[C@@H]12)c1cc2ccncc2o1 [Example 99, N-(2-((1R,5S,6s)-3-(2-(tetrahydro-2H-pyran-4-yl)acetyl)-3-azabicyclo[3.1.0]hexan-6-yl)ethyl)furo[2,3-c]pyridine-2-carboxamide]
0.5 to 0.99 µM | O=C(NCC[C@@H]1[C@H]2CN(C(=O)C3CCOCC3)C[C@@H]12)c1cc2ccncc2o1 [Example 100, N-(2-((1R,5S,6s)-3-(tetrahydro-2H-pyran-4-carbonyl)-3-azabicyclo[3.1.0]hexan-6-yl)ethyl)furo[2,3-c]pyridine-2-carboxamide]
0.01 to 0.49 µM | O=C(NCC[C@@H]1[C@H]2CN(C(=O)CC3CCOCC3)C[C@@H]12)c1ccc2nccn2c1 [Example 101, N-(2-((1R,5S,6s)-3-(2-(tetrahydro-2H-pyran-4-yl)acetyl)-3-azabicyclo[3.1.0]hexan-6-yl)ethyl)imidazo[1,2-a]pyridine-6-carboxamide]
0.01 to 0.49 µM | O=C(NCC[C@@H]1[C@H]2CN(C(=O)c3ccc(F)cc3)C[C@@H]12)c1ccc2nccn2c1 [Example 102, N-(2-((1R,5S,6s)-3-(4-fluorobenzoyl)-3-azabicyclo[3.1.0]hexan-6-yl)ethyl)imidazo[1,2-a]pyridine-6-carboxamide]
0.01 to 0.49 µM | Cc1nc(C)c(C(=O)N2C[C@@H]3[C@@H](CCNC(=O)c4ccc5nccn5c4)[C@@H]3C2)o1 [Example 103, N-(2-((1R,5S,6s)-3-(2,4-dimethyloxazole-5-carbonyl)-3-azabicyclo[3.1.0]hexan-6-yl)ethyl)imidazo[1,2-a]pyridine-6-carboxamide]
0.01 to 0.49 µM | O=C(/C=C/c1cccnc1)NCC[C@@H]1[C@H]2CN(C(=O)CC3CCOCC3)C[C@@H]12 [Example 104]
0.01 to 0.49 µM | Cc1nc(C)c(C(=O)N2C[C@@H]3[C@@H](CCNC(=O)/C=C/c4cccnc4)[C@@H]3C2)o1 [Example 105, (E)-N-(2-((1R,5S,6s)-3-(2,4-dimethyloxazole-5-carbonyl)-3-azabicyclo[3.1.0]hexan-6-yl)ethyl)-3-(pyridin-3-yl)acrylamide]
0.01 to 0.49 µM | O=C(NCC[C@@H]1[C@H]2CN(C(=O)CC3CCOCC3)C[C@@H]12)c1cnc2nccn2c1 [Example 106, N-(2-((1R,5S,6s)-3-(2-(tetrahydro-2H-pyran-4-yl)acetyl)-3-azabicyclo[3.1.0]hexan-6-yl)ethyl)imidazo[1,2-a]pyrimidine-6-carboxamide]
0.01 to 0.49 µM | O=C(NCC[C@@H]1[C@H]2CN(C(=O)c3ccc(F)cc3)C[C@@H]12)c1cnc2nccn2c1 [Example 107, N-(2-((1R,5S,6s)-3-(4-fluorobenzoyl)-3-azabicyclo[3.1.0]hexan-6-yl)ethyl)imidazo[1,2-a]pyrimidine-6-carboxamide]
0.01 to 0.49 µM | Cc1nc(C)c(C(=O)N2C[C@@H]3[C@@H](CCNC(=O)c4cnc5nccn5c4)[C@@H]3C2)o1 [Example 108, N-(2-((1R,5S,6s)-3-(2,4-dimethyloxazole-5-carbonyl)-3-azabicyclo[3.1.0]hexan-6-yl)ethyl)imidazo[1,2-a]pyrimidine-6-carboxamide]
0.01 to 0.49 µM | O=C(NCC[C@@H]1[C@H]2CN(C(=O)CC3CCOCC3)C[C@@H]12)c1cc(-c2cccnc2)on1 [Example 109, 5-(pyridin-3-yl)-N-(2-((1R,5S,6s)-3-(2-(tetrahydro-2H-pyran-4-yl)acetyl)-3-azabicyclo[3.1.0]hexan-6-yl)ethyl)isoxazole-3-carboxamide]
0.01 to 0.49 µM | O=C(NCC[C@@H]1[C@H]2CN(C(=O)c3ccc(F)cc3)C[C@@H]12)c1cc(-c2cccnc2)on1 [Example 110, N-(2-((1R,5S,6s)-3-(4-fluorobenzoyl)-3-azabicyclo[3.1.0]hexan-6-yl)ethyl)-5-(pyridin-3-yl)isoxazole-3-carboxamide]
0.01 to 0.49 µM | Cc1nc(C)c(C(=O)N2C[C@@H]3[C@@H](CCNC(=O)c4cc(-c5cccnc5)on4)[C@@H]3C2)o1 [Example 111, N-(2-((1R,5S,6s)-3-(2,4-dimethyloxazole-5-carbonyl)-3-azabicyclo[3.1.0]hexan-6-yl)ethyl)-5-(pyridin-3-yl)isoxazole-3-carboxamide]
0.01 to 0.49 µM | O=C(NCC[C@@H]1[C@H]2CN(C(=O)CC3CCOCC3)C[C@@H]12)c1cc2cnccc2[nH]1 [Example 112, N-(2-((1R,5S,6s)-3-(2-(tetrahydro-2H-pyran-4-yl)acetyl)-3-azabicyclo[3.1.0]hexan-6-yl)ethyl)-1H-pyrrolo[3,2-c]pyridine-2-carboxamide]
0.01 to 0.49 µM | Cc1nc(C)c(C(=O)N2C[C@@H]3[C@@H](CCNC(=O)c4cc5cnccc5[nH]4)[C@@H]3C2)o1 [Example 113, N-(2-((1R,5S,6s)-3-(2,4-dimethyloxazole-5-carbonyl)-3-azabicyclo[3.1.0]hexan-6-yl)ethyl)-1H-pyrrolo[3,2-c]pyridine-2-carboxamide]
0.01 to 0.49 µM | O=C(/C=C/c1cccnc1)NCC[C@@H]1[C@H]2CN(c3ccccc3)C[C@@H]12 [Example 117, (E)-N-(2-((1R,5S,6s)-3-phenyl-3-azabicyclo[3.1.0]hexan-6-yl)ethyl)-3-(pyridin-3-yl)acrylamide]
0.01 to 0.49 µM | O=C(NCC[C@@H]1[C@H]2CN(c3ncccn3)C[C@@H]12)c1ccc2nccn2c1 [Example 118, N-(2-((1R,5S,6s)-3-(pyrimidin-2-yl)-3-azabicyclo[3.1.0]hexan-6-yl)ethyl)imidazo[1,2-a]pyridine-6-carboxamide]
0.01 to 0.49 µM | O=C(NCC[C@@H]1[C@H]2CN(c3ncccn3)C[C@@H]12)c1cc2ccncc2o1 [Example 119, N-(2-((1R,5S,6s)-3-(pyrimidin-2-yl)-3-azabicyclo[3.1.0]hexan-6-yl)ethyl)furo[2,3-c]pyridine-2-carboxamide]
0.01 to 0.49 µM | O=C(NCC[C@@H]1[C@H]2CN(c3nc4ccccc4s3)C[C@@H]12)c1cc2ccncc2o1 [Example 120, N-(2-((1R,5S,6s)-3-(benzo[d]thiazol-2-yl)-3-azabicyclo[3.1.0]hexan-6-yl)ethyl)furo[2,3-c]pyridine-2-carboxamide]
0.01 to 0.49 µM | O=C(NCC[C@@H]1[C@H]2CN(c3cccc4ccccc34)C[C@@H]12)c1cc2ccncc2o1 [Example 121, N-(2-((1R,5S,6s)-3-(naphthalen-1-yl)-3-azabicyclo[3.1.0]hexan-6-yl)ethyl)furo[2,3-c]pyridine-2-carboxamide]

Same assay, conditions: [HDB]; read-out: NAMPT IC50 (μM) [HDB]

IC50 | SMILES
0.01 to 0.49 µM | Cc1nc(C)c(C(=O)N2C[C@@H]3[C@@H](CCNC(=O)c4cc5ccncc5s4)[C@@H]3C2)o1 [Example 114, N-(2-((1R,5S,6s)-3-(2,4-dimethyloxazole-5-carbonyl)-3-azabicyclo[3.1.0]hexan-6-yl)ethyl)thieno[2,3-c]pyridine-2-carboxamide]
< 0.01 µM | NC(=O)c1cccc(C(=O)N2C[C@@H]3[C@@H](CCNC(=O)/C=C/c4cccnc4)[C@@H]3C2)c1 [Example 115, 3-((1R,5S,6s)-6-(2-((E)-3-(pyridin-3-yl)acrylamido)ethyl)-3-azabicyclo[3.1.0]hexane-3-carbonyl)benzamide]
0.01 to 0.49 µM | NC(=O)c1cccc(C(=O)N2C[C@@H]3[C@@H](CCNC(=O)c4cc5cnccc5[nH]4)[C@@H]3C2)c1 [Example 116, N-(2-((1R,5S,6s)-3-(3-carbamoylbenzoyl)-3-azabicyclo[3.1.0]hexan-6-yl)ethyl)-1H-pyrrolo[3,2-c]pyridine-2-carboxamide]
